Among the data in patent publication US7524844B2, “Dipeptidyl peptidase IV inhibitors, process for their preparation and compositions containing them” (Glenmark Pharmaceuticals S.A., priority 2004, dated 2009) are IC50 and inhibition values, retold here.

For this assay, the target named is T1, human recombinant Dipeptidyl peptidase IV enzyme (DPP-IV) (Homo sapiens, UniProt P27487).
T1 construct: purchased R&D Systems Inc. of Minneapolis, Minn
The experiment in a line: in-vitro DPP-IV assay (cleavage of AMC from Gly-Pro-AMC). It counts as biochemical. The conditions noted are these: for IC50: human recombinant DPP-IV, Gly-Pro-AMC substrate, 30° C., 30 minutes, read-out: DPP-IV inhibition using human recombinant DPP-IV enzyme, IC50; for inhibition at 0.3 µM: at 300 nM, printed in the IC50 (nM) column, read-out: DPP-IV inhibition using human recombinant DPP-IV enzyme, percent inhibition. On the procedure: DPP-IV activity was determined by the cleavage rate of 7-amino-4-methyl coumarin (AMC) from the synthetic substrate Glycyl-Prolyl-AMC. In brief, the assay was conducted by adding 10 ng of human recombinant Dipeptidyl peptidase IV enzyme (DPP-IV, available commercially from R&D Systems Inc. of Minneapolis, Minn.) in 50 μl of the assay buffer (25 mM Tris, pH 7.4, 140 mM NaCl, 10 mM KCl, 1% BSA) to 96 well black flat bottom microtiter plates. The reaction was initiated by adding 50 μl of 100 μM substrate Gly-Pro-AMC. The incubation was carried out in the kinetic mode at 30° C. for 30 minutes. Fluorescence was measured using Fluorostar with an excitation filter of 380 nm and emission filter of 460 nm. Test compounds and solvent controls were added as 1 μl additions. A standard curve of free amino methyl coumarin (AMC) was generated using 0-100 μM AMC in the assay buffer. The curve generated, which was linear was used for the interpolation of catalytic activity.
Test compounds dissolved in DMSO at 5-6 concentrations were tested in duplicate along with the solvent control and blank samples. Percent inhibition was calculated at each concentration with respect to the solvent control sample (no test compound added). […]

T1 sequence (P27487 whole entry): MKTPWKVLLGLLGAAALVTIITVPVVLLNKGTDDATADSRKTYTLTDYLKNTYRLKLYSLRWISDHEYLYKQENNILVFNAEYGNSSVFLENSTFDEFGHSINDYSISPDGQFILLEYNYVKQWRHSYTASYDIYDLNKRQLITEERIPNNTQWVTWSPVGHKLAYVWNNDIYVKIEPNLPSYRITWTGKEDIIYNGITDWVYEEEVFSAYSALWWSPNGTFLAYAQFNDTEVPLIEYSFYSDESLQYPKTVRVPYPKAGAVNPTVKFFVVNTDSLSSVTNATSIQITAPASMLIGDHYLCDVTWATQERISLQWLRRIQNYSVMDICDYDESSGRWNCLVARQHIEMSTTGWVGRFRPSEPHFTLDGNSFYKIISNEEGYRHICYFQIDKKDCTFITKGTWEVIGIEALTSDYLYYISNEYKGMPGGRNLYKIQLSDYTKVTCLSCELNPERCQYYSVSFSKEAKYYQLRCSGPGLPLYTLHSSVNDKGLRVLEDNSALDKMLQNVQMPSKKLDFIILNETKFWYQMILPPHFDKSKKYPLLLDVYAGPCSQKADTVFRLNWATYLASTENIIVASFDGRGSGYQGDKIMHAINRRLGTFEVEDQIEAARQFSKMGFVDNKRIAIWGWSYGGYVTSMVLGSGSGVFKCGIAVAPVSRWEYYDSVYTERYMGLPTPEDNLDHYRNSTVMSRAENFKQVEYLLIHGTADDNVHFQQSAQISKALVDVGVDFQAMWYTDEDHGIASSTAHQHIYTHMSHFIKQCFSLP

Regarding `N#CC1CCC(NCC(=O)N2CCC[C@H]2C#N)C1` (mixture of isomers) [Example 2, (2S)-1-{2-[(3SR,1RS)-3-Cyanocyclopentylamino]acetyl}-2-pyrrolidinecarbonitrile], the IC50 amounted to 286 nM.
The same measure, in the same setting: in the case of `N#C[C@@H]1CCCN1C(=O)CNC1CCC(C(N)=O)C1` (mixture of isomers) [Example-1, (1SR,3RS)-3-{2-[(2S)-2-Cyanopyrrolidin-1-yl]-2-oxoethylamino}cyclopentane-1-carboxamide] it was 163 nM.
The same measure, in the same setting: in the case of `N#CCC1CCC(NCC(=O)N2CCC[C@H]2C#N)C1` (mixture of isomers) [Example-3, (2S)-1-{2-[(3SR,1RS)-3-Cyanomethylcyclopentylamino]acetyl}-2-pyrrolidine carbonitrile] it was 26.8 nM; in that of `N#C[C@@H]1CCCN1C(=O)CNC1CCC(CN2CCC[C@H]2C(N)=O)C1` (mixture of isomers) [Example-10, (2S)-1-((1SR,3RS)-3-{2-[(2S)-2-Cyanopyrrolidin-1-yl]-2-oxoethylamino}cyclopentyl-methyl)pyrrolidine-2-carboxamide], 64.4 nM.
Same read-out and setting: in the case of `N#C[C@@H]1CCCN1C(=O)CNC1CCC(C(=O)NOCc2ccccc2)C1` (mixture of isomers) [Example-12, N1-Benzyloxy-(1SR,3RS)-3-{2-[(2S)-2-cyanopyrrolidin-1-yl]-2-oxoethylamino}-cyclopentane-1-carboxamide] it was 145 nM.
Consider `CN1CCN(CC2CCC(NCC(=O)N3CCC[C@H]3C#N)C2)CC1` (mixture of isomers) [Example-20, (2S)-1-{2-[(3SR,1RS)-3-(4-Methylpiperazinomethyl)cyclopentylamino]acetyl}-pyrrolidine-2-carbonitrile], for which the IC50 is 123 nM.
Still for that read-out and setting: for `N#CC1CCN(C[C@H]2CC[C@@H](NCC(=O)N3CCC[C@H]3C#N)C2)CC1` (mixture of isomers) [Example-21, (2S)-1-{2-[(3SR,1RS)-3-(4-Cyanopiperidinylmethyl)cyclopentylamino]acetyl}-pyrrolidine-2-carbonitrile] the value was 33 nM; for `N#Cc1cccn1CC1CCC(NCC(=O)N2C[C@@H](F)C[C@H]2C#N)C1` (mixture of isomers) [Example-27, (2S,4S)-1-{2-[(3SR,1RS)-3-(2-Cyano-1H-pyrrol-1-ylmethyl)cyclopentylamino)-acetyl}-4-fluoropyrrolidine-2-carbonitrile], 3.44 nM; for `CCCCc1nc(Cl)c(CO)n1CC1CCC(NCC(=O)N2CCC[C@H]2C#N)C1` (mixture of isomers) [Example-31, (2S)-1-{2-[(3SR,1RS)-3-(2-Butyl-4-chloro-5-hydroxymethyl-1H-1-imidazolylmethyl)-cyclopentylamino]acetyl}pyrrolidine-2-carbonitrile], 10.1 nM.
Regarding `CCCCc1nc(Cl)c(C#N)n1CC1CCC(NCC(=O)N2CCC[C@H]2C#N)C1` (mixture of isomers) [Example-32, 2-n-Butyl-4-chloro-1-((1SR,3RS)-3-{2-[(2S)-2-cyanopyrrolidin-1-yl]-2-oxoethyl-amino}cyclopentylmethyl)-1H-5-imidazolecarbonitrile], the IC50 worked out at 3.46 nM.
On the same count and under the same terms, for `N#Cc1ncn(CC2CCC(NCC(=O)N3CCC[C@H]3C#N)C2)c1C#N` (mixture of isomers) [Example-33, 1-((1SR,3RS)-3-{2-[(2S)-2-Cyanopyrrolidin-1-yl]-2-oxoethylamino}cyclopentyl-methyl)-1H-4,5-imidazoledicarbonitrile] the value was 5.05 nM; for `N#C[C@@H]1CCCN1C(=O)CNC1CCC(Cn2cncn2)C1` (mixture of isomers) [Example-36, (2S)-1-{2-[(3SR,1RS)-3-(1H-1,2,4-Triazol-1-ylmethyl)cyclopentylamino]acetyl}-pyrrolidine-2-carbonitrile], 6 nM.
Still for that read-out and setting: in the case of `N#C[C@@H]1C[C@H](F)CN1C(=O)CNC1CCC(Cn2cncn2)C1` (mixture of isomers) [Example-41, (2S,4S)-1-{2-[(3SR,1RS)-3-(1H-1,2,4-Triazol-1-ylmethyl)cyclopentylamino]acetyl}-4-fluoropyrrolidine-2-carbonitrile] it was 4.44 nM; in that of `N#C[C@@H]1CCCN1C(=O)CNC1CCC(C(=O)NC23CC4CC(CC(C4)C2)C3)C1` (mixture of isomers) [Example 72, 1-((1SR,3RS)-3-{2-[(2S)-2-Cyanopyrrolidin-1-yl]-2-oxoethylamino}cyclopentyl-carboxamido)adamantine], 209 nM.
The same measure, in the same setting: in the case of `N#C[C@@H]1CCCN1C(=O)CNC1CCC(C(=O)Nc2cc(F)ccc2F)C1` (mixture of isomers) [Example 73, 1-((1SR,3RS)-3-{2-[(2S)-2-Cyanopyrrolidin-1-yl)-2-oxoethylamino}cyclopentyl-carboxamido)-2,5-difluorobenzene] it was 49.2 nM.
Turning to `N#C[C@@H]1CCCN1C(=O)CNC1CCC(C(=O)Nc2cc(F)c(F)cc2F)C1` (mixture of isomers) [Example 74, 1-((1SR,3RS)-3-{2-[(2S)-2-Cyanopyrrolidine-1-yl]-2-oxoethylamino}cyclopentyl-carboxamido)-2,4,5-trifluorobenzene], the inhibition at 0.3 µM is 2%.
On to `N#C[C@@H]1CCCN1C(=O)CNC1CCC(C(=O)Nc2ccccc2-c2ccccc2)C1` (mixture of isomers) [Example 75, 1-((1SR,3RS)-3-{2-[(2S)-2-Cyanopyrrolidin-1-yl)-2-oxoethylamino}cyclopentyl-carboxamido)-2-phenylbenzene], for which the IC50 came out at 252 nM.
The same measure, in the same setting: for `N#C[C@@H]1CCCN1C(=O)CNC1CCC(C(=O)N2CCC[C@H]2C#N)C1` (mixture of isomers) [Example-11] the value was 103 nM; for `N#C[C@@H]1CCCN1C(=O)CNC1CCC(CN2CCSC2)C1` (mixture of isomers) [Example-17], 288 nM.
Turning to `N#C[C@@H]1CCCN1C(=O)CNC1CCC(CN2CCN(Cc3ccccc3)CC2)C1` (mixture of isomers) [Example-22, (2S)-1-{2-1[(3SR,1RS)-3-(4-Benzylpiperazinomethyl)cyclopentylamino]acetyl}-pyrrolidin-2-carbonitrile], the IC50 came out at 25.4 nM.
As to `N#C[C@@H]1CCCN1C(=O)CNC1CCC(Cn2cnc([N+](=O)[O-])c2)C1` (mixture of isomers) [Example-30, (2S)-1-{2-[(3SR,1RS)-3-(1H-4-Nitro-1-imidazolylmethyl)cyclopentylamino]acetyl}-pyrrolidine-2-carbonitrile], the IC50 stood at 6.88 nM.
As to `O=C(CN[C@H]1CCC(Cn2cncn2)C1)N1CC[C@H](F)C1` (stereo in doubt) [Example-55, 1-[(3S)-3-Fluoropyrrolidin-1-yl]-2-[(1S,3S)-3-(1H-1,2,4-Triazol-1-ylmethyl)cyclo-pentylamino]-1-ethanone], the inhibition at 0.3 µM was 0%.
In the case of `N#CC[C@H]1CC[C@@H](NCC(=O)N2CCC[C@H]2C#N)C1` [Example-4, (2S)-1-{2-[(3S,1R)-3-Cyanomethylcyclopentylamino]acetyl}-2-pyrrolidinecarbo-nitrile], the IC50 was determined as 22.2 nM.
Same read-out and setting: for `N#CC[C@@H]1CC[C@H](NCC(=O)N2CCC[C@H]2C#N)C1` [Example-6, (2S)-1-{2-[(3R,1S)-3-Cyanomethylcyclopentylamino]acetyl}-2-pyrrolidinecarbo nitrile] the value was 21.8 nM.
Same read-out and setting: in the case of `N#CC[C@H]1CC[C@@H](NCC(=O)N2C[C@@H](F)C[C@H]2C#N)C1` [Example-7, (2S,4S)-1-{2-[(3S,1R)-3-Cyanomethylcyclopentylamino]acetyl}-4-fluoro-2-pyrrol-idinecarbonitrile] it was 4.29 nM.

In general, IC50 refers to the concentration at which inhibition is half-maximal. In general, inhibition refers to the drop in the measured response relative to a control, in per cent.
